Tests used:
TGFβ1-induced hHSC = assay: α-SMA ELISA in TGFβ1-induced human primary hepatic stellate cells; format: cell-based
Procedure: (§1) The human primary hepatic stellate cells (hHSC) (Innoprot) were cultured in STeCM medium (ScienCell cat #5301) that was supplemented with 2% fetal bovine serum (FBS, ScienCell cat #0010), 1% penicillin/streptomycin (ScienCell cat #0503) and stellate cell growth supplement (SteCGS; ScienCell cat #5352). Cell culture flasks were coated with Poly-L Lysine (Sigma cat #P4707) for a better adherence.
For these experiments, a checkerboard matrix was generated. ELA and component (ii) stocks were serially diluted in DMSO in 5-points series in a row (ELA) and a 11-points series in a column (component (ii)) of a 96-well plate. Subsequently, the 5×11 combination matrix was generated by 1:1 mixing of all single agent concentrations. The test concentrations for each compound were chosen based on the respective IC50 of each compound as single agent obtained by measuring α-SMA content in the HSC model stimulated with TGF-β1.
The human primary hepatic stellate cells (hHSC) (Innoprot) were cultured under standard conditions, as described above. The cells were subsequently plated at a density of 2×10^4 cells/well into 96-well plates for the measure of α-SMA by ELISA. The next day, cell-culture medium was removed, and cells were washed with PBS (Invitrogen cat #14190). hHSC were deprived for 24 hours in serum-free and SteCGS-free medium. For the treatments with ELA, component (ii) and the respective ELA/component (ii) combinations, the serum-deprived hHSC were preincubated for 1 hour with the compounds followed by addition of the profibrogenic stimuli TGF-β1 (PeproTech cat #100-21, 1 ng/mL) in serum-free and SteCGS-free medium for an additional 48 hour period.
The level of α-SMA was measured using a Sandwich ELISA. Briefly, the wells of an ELISA plate were first coated with the capture antibody (mouse monoclonal anti-ACTA2, Abnova) at 4° C. overnight. After 3 washes in PBS+0.2% Tween 20, a blocking solution consisting of PBS+0.2% BSA was added for one hour followed by another washing cycle. The cell lysates were transferred into the wells for binding to the capture antibody for a period of 2 h at room temperature. After the washing procedure, the detection antibody (biotinylated mouse monoclonal anti-ACTA2, Abnova) was added for 2 hours at room temperature followed by 3 washes. For the detection, an HRP-conjugated Streptavidin (R&D Systems cat #DY998) was first applied for 30 min at room temperature. After washing, the HRP substrate TMB (BD, #555214) was added and incubated for 7 min at room temperature in the dark. Upon oxidation, TMB forms a water-soluble blue reaction product that becomes yellow with addition of sulfuric acid (solution stop), enabling accurate measurement of the intensity at 450 nm using a spectrophotometer. The developed color is directly proportional to the amount of α-SMA present in the lysate.
as §1, with “Cell-culture” for “Cell culture”
For these experiments, a checkerboard matrix was generated. CVC and Elafibranor stocks were serially diluted in DMSO in a 5-points series in a row (Elafibranor) and a 6-points series in a column (Cenicriviroc) of a 96-well plate. Subsequently, the […] combination matrix was generated by 1:1 mixing of all single agent concentrations. The test concentrations for each compound were chosen based on the respective IC50 of each compound as single agent obtained by measuring α-SMA content in the HSC model stimulated with TGF-β1.
The human primary hepatic stellate cells (hHSC) (Innoprot) were cultured under standard conditions, as described above. […]

HepG2 = assay: Intracellular lipid droplets (AdipoRed) in fat-loaded HepG2; format: cell-based, human; conditions: elafibranor 10 μM alone; FFA-treated
Procedure: The human hepatocyte carcinoma were cultured in DMEM 4.5 g/L glucose (Gibco cat #31053 that was supplemented with 10% fetal bovine serum (FBS, Gibco cat #10270), 1% penicillin/streptomycin (Gibco cat #15140), 1% MEM NEAA (Gibco cat #11140), 1% L-Glutamine (Gibco cat #25030), and 1% Sodium Pyruvate (Gibco cat #11360).
For these experiments, a checkerboard matrix was generated. ELA and component stocks were serially diluted in DMSO in 5-points series in a row (ELA) and a 11-points series in a column (component) of a 384-well plate. Subsequently, the 5×11 combination matrix was generated by 1:1 mixing of all single agent concentrations.
Oleic (#O1383) and palmitic (P0500) acids were purchased at Sigma. FFA stock solutions (100 mM) were prepared in 0.1M NaOH at 80° C. Working solutions of 4.5 mM palmitate/10% bovine serum albumin (BSA) and 9 mM oleate/10% BSA were prepared by complexing an appropriate volume of stock solution to 10% BSA (FFA-free low endotoxin; Sigma-Aldrich, Bornem, Belgium) in a 55° C. water bath (15 min). […]
To measure intracellular lipid droplets content, the cells were brought to room temperature and washed with 40 μL PBS. […] The relative fluorescence was measured (k excitation at 485 nm, k emission at 580 nm) using a fluorescence spectrometer (Spark Tecan cat #30086376 SN #1801002745). […]

## 1-[4-methylthiophenyl]-3-[3,5-dimethyl-4-carboxydimethylmethyloxyphenyl]prop-2-en-1-one [Elafibranor]
TGFβ1-induced hHSC; 5 μM of Elafibranor alone
  α-SMA inhibition over TGFβ1 control: 40%
TGFβ1-induced hHSC; TGFβ1 1 ng/ml, 48 h, single agent
  IC50: 3.17 µM
TGFβ1-induced hHSC; TGFβ1 1 ng/ml, 48 h, single agent, maximal reduction
  α-SMA marker reduction: 80%
TGFβ1-induced hHSC; TGFβ1-activated hHSC, dose range
  antifibrotic activity (α-SMA), single agent: has an antifibrotic activity
HepG2
  reduction of fat accumulation: 20%

Source: US11478440B2, “Combination of Elafibranor or derivatives thereof with an anti-NASH, anti-fibrotic or anti-cholestatic agent” (GENFIT, priority 2017, dated 2022)
